The results in this text go back to PubChem BioAssay AID212 (DTP/NCI, 2004).

This assay deals with BDF1 mice, colon carcinoma 38 sc, T/C %. The experiment in a line: NCI In Vivo Anticancer Drug Screen. Data for tumor model Colon Carcinoma 38 (subcutaneous) in B6D2F1 (BDF1) mice. In a few lines: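 Compound antitumor activity was assessed in mice carrying transplantable tumors. Survival or tumor size was recorded, and each value is the treated-group measurement divided by that of the vehicle-treated control group.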

Where [1] appears, read: endpoint: median tumor weight (est.), dose: 12.5 mg/kg/injection, schedule: Q07DX002 (ip), vehicle: Klucel (hydroxypropylcellulose) (HPC), higher = larger tumour.
[2] abbreviates: endpoint: median tumor weight (est.), dose: 25.0 mg/kg/injection, schedule: Q07DX002 (ip), vehicle: Klucel (hydroxypropylcellulose) (HPC), higher = larger tumour.
The mark [3] stands for this setting: endpoint: median tumor weight (est.), dose: 25.0 mg/kg/injection, schedule: Q07DX003 (ip), vehicle: Klucel (hydroxypropylcellulose) (HPC), higher = larger tumour.
Where [4] appears, read: endpoint: median tumor weight (est.), dose: 50.0 mg/kg/injection, schedule: Q07DX002 (ip), vehicle: Klucel (hydroxypropylcellulose) (HPC), higher = larger tumour.
[5] abbreviates: endpoint: median tumor weight (est.), dose: 50.0 mg/kg/injection, schedule: Q07DX003 (ip), vehicle: Klucel (hydroxypropylcellulose) (HPC), higher = larger tumour.
Where [6] appears, read: endpoint: median tumor weight (est.), dose: 100.0 mg/kg/injection, schedule: Q07DX002 (ip), vehicle: Klucel (hydroxypropylcellulose) (HPC), higher = larger tumour.
Setting [7] is: endpoint: median tumor weight (est.), dose: 100.0 mg/kg/injection, schedule: Q07DX003 (ip), vehicle: Klucel (hydroxypropylcellulose) (HPC), higher = larger tumour.
Setting [8] is: endpoint: median tumor weight (est.), dose: 200.0 mg/kg/injection, schedule: Q07DX002 (ip), vehicle: Klucel (hydroxypropylcellulose) (HPC), higher = larger tumour.
Where [9] appears, read: endpoint: median tumor weight (est.), dose: 200.0 mg/kg/injection, schedule: Q07DX003 (ip), vehicle: Klucel (hydroxypropylcellulose) (HPC), higher = larger tumour.
Setting [10] is: endpoint: median tumor weight (est.), dose: 400.0 mg/kg/injection, schedule: Q07DX002 (ip), vehicle: Klucel (hydroxypropylcellulose) (HPC), higher = larger tumour.
Setting [11] is: endpoint: median tumor weight (est.), dose: 400.0 mg/kg/injection, schedule: Q07DX003 (ip), vehicle: Klucel (hydroxypropylcellulose) (HPC), higher = larger tumour.
The mark [12] stands for this setting: endpoint: median tumor weight (est.), dose: 25.0 mg/kg/injection, schedule: Q07DX002 (ip), vehicle: saline with Tween-80, higher = larger tumour.
The mark [13] stands for this setting: endpoint: median tumor weight (est.), dose: 50.0 mg/kg/injection, schedule: Q07DX002 (ip), vehicle: saline with Tween-80, higher = larger tumour.
Setting [14] is: endpoint: median tumor weight (est.), dose: 100.0 mg/kg/injection, schedule: Q07DX002 (ip), vehicle: saline with Tween-80, higher = larger tumour.
The mark [15] stands for this setting: endpoint: median tumor weight (est.), dose: 12.5 mg/kg/injection, schedule: Q07DX002 (ip), vehicle: saline with Tween-80, higher = larger tumour.
[16] abbreviates: endpoint: median tumor weight (est.), dose: 150.0 mg/kg/injection, schedule: Q07DX002 (ip), vehicle: saline, higher = larger tumour.
Setting [17] is: endpoint: median tumor weight (est.), dose: 1200.0 mg/kg/injection, schedule: Q07DX002 (ip), vehicle: saline, higher = larger tumour.

Where “and” joins values, the source holds several entries; their conditions need not be identical. Equal entries are not always repeated. Records with an inconclusive call do not appear. Where a SMILES comes first, the peptide text is derived from it. The star is where a group is joined. Trt = c1ccc(C(c2ccccc2)(c2ccccc2)*)cc1; Cbz = O=C(OCc1ccccc1)*; Bn = c1ccc(C*)cc1; βAla = NCCC(=O)O

With `N[C@H](C(=O)O)[C@@H]1CC(Cl)=NO1`, the T/C by setting is: (endpoint: median survival time, dose: 25.9 mg/kg/injection, schedule: Q04DX002 (ip), vehicle: suspension in saline, higher = longer survival) 113 % of control; (endpoint: median survival time, dose: 43.2 mg/kg/injection, schedule: Q04DX002 (ip), vehicle: suspension in saline, higher = longer survival) 122 % of control; (endpoint: median survival time, dose: 72.0 mg/kg/injection, schedule: Q04DX002 (ip), vehicle: suspension in saline, higher = longer survival) 114 % of control; (endpoint: median survival time, dose: 200.0 mg/kg/injection, schedule: Q04DX002 (ip), vehicle: suspension in saline, higher = longer survival) 119 % of control; (endpoint: median tumor weight (est.), dose: 1.0 mg/kg/injection, schedule: Q07DX003 (ip), vehicle: saline, higher = larger tumour) 114 % of control; (endpoint: median tumor weight (est.), dose: 2.0 mg/kg/injection, schedule: Q07DX003 (ip), vehicle: saline, higher = larger tumour) 71 % of control and 79 % of control. Also, the T/C (endpoint: median tumor weight (est.), dose: 4.0 mg/kg/injection, schedule: Q07DX003 (ip), vehicle: saline, higher = larger tumour) is 86 % of control; the T/C (endpoint: median tumor weight (est.), dose: 8.0 mg/kg/injection, schedule: Q07DX003 (ip), vehicle: saline, higher = larger tumour) is 156 % of control; the T/C (endpoint: median tumor weight (est.), dose: 16.0 mg/kg/injection, schedule: Q07DX003 (ip), vehicle: saline, higher = larger tumour) was 69 % of control; the T/C (endpoint: median tumor weight (est.), dose: 32.0 mg/kg/injection, schedule: Q07DX003 (ip), vehicle: saline, higher = larger tumour) is 69 % of control; the T/C (endpoint: median tumor weight (est.), dose: 64.0 mg/kg/injection, schedule: Q07DX003 (ip), vehicle: saline, higher = larger tumour) is 78 % of control.
For `CN(C)/N=N/c1nc[nH]c1C(N)=O`, the T/C under setting [1] is 28 % of control; the T/C under setting [2] is 64 % of control; the T/C under setting [3] is 75 % of control; the T/C (endpoint: median tumor weight (est.), dose: 25.0 mg/kg/injection, schedule: Q07DX003 (ip), vehicle: carboxymethylcellulose (CMC), higher = larger tumour) is 37 % of control; the T/C under setting [4] is 40 % of control; the T/C under setting [5] was 43 % of control. Moreover, the T/C runs as follows: (endpoint: median tumor weight (est.), dose: 50.0 mg/kg/injection, schedule: Q07DX003 (ip), vehicle: carboxymethylcellulose (CMC), higher = larger tumour) 28 % of control; under setting [6], 74 % of control and 75 % of control; under setting [7], 85 % of control; (endpoint: median tumor weight (est.), dose: 100.0 mg/kg/injection, schedule: Q07DX003 (ip), vehicle: carboxymethylcellulose (CMC), higher = larger tumour) 16 % of control; under setting [8], 12 % of control and 28 % of control; under setting [9], 9 % of control. Besides, the T/C (endpoint: median tumor weight (est.), dose: 200.0 mg/kg/injection, schedule: Q07DX003 (ip), vehicle: carboxymethylcellulose (CMC), higher = larger tumour) is 16 % of control; the T/C under setting [10] is 13 % of control and 33 % of control; the T/C under setting [11] was 44 % of control.
On to `CC1(C)CC(=O)C(CSC(=O)c2ccccc2)C(=O)C1`, for which the T/C was 120 % of control and 104 % of control under setting [1]; 113 % of control and 104 % of control under setting [2]; 88 % of control under setting [6].
As for `O=C(Nc1ccccc1C(=O)O)c1cc([N+](=O)[O-])cc([N+](=O)[O-])c1`, the T/C runs as follows: under setting [12], 110 % of control and 88 % of control; under setting [13], 78 % of control and 85 % of control; under setting [14], 69 % of control; (endpoint: median tumor weight (est.), dose: 200.0 mg/kg/injection, schedule: Q07DX002 (ip), vehicle: saline with Tween-80, higher = larger tumour) 83 % of control and 86 % of control.
For the compound `CCOC(=O)c1cn(C)c2c1C(O)=C(C(=O)OC)CC(=O)N2`, the T/C is 81 % of control under setting [13]; 119 % of control under setting [14]; 88 % of control (endpoint: median tumor weight (est.), dose: 400.0 mg/kg/injection, schedule: Q07DX002 (ip), vehicle: saline with Tween-80, higher = larger tumour); 97 % of control (endpoint: median tumor weight (est.), dose: 800.0 mg/kg/injection, schedule: Q07DX002 (ip), vehicle: saline with Tween-80, higher = larger tumour).
Take `CC1=CC(C)(C)Nc2ccc(CSc3ccccc3)cc21`: the T/C was 88 % of control (endpoint: median tumor weight (est.), dose: 6.25 mg/kg/injection, schedule: Q07DX002 (ip), vehicle: DMSO, higher = larger tumour); 86 % of control (endpoint: median tumor weight (est.), dose: 12.5 mg/kg/injection, schedule: Q07DX002 (ip), vehicle: DMSO, higher = larger tumour); 78 % of control (endpoint: median tumor weight (est.), dose: 12.5 mg/kg/injection, schedule: Q07DX002 (ip), vehicle: saline + Tween-80 + alcohol, higher = larger tumour); 76 % of control (endpoint: median tumor weight (est.), dose: 25.0 mg/kg/injection, schedule: Q07DX002 (ip), vehicle: DMSO, higher = larger tumour); 86 % of control (endpoint: median tumor weight (est.), dose: 25.0 mg/kg/injection, schedule: Q07DX002 (ip), vehicle: saline + Tween-80 + alcohol, higher = larger tumour); 67 % of control (endpoint: median tumor weight (est.), dose: 50.0 mg/kg/injection, schedule: Q07DX002 (ip), vehicle: DMSO, higher = larger tumour). For the same compound, the T/C was 107 % of control (endpoint: median tumor weight (est.), dose: 50.0 mg/kg/injection, schedule: Q07DX002 (ip), vehicle: saline + Tween-80 + alcohol, higher = larger tumour); 59 % of control (endpoint: median tumor weight (est.), dose: 100.0 mg/kg/injection, schedule: Q07DX002 (ip), vehicle: DMSO, higher = larger tumour); 102 % of control (endpoint: median tumor weight (est.), dose: 100.0 mg/kg/injection, schedule: Q07DX002 (ip), vehicle: saline + Tween-80 + alcohol, higher = larger tumour).
Regarding `COC(=O)C(CSC(c1ccccc1)(c1ccccc1)c1ccccc1)NC(=O)C(CSCc1ccccc1)NC(=O)CCNC(=O)OCc1ccccc1` (configuration not stated) ({Cbz-βAla}-Cys(Bn)-Cys(Trt)-OMe; configuration not given here), the T/C by setting is: under setting [2], 106 % of control; under setting [4], 109 % of control; under setting [6], 96 % of control; under setting [8], 87 % of control; under setting [10], 123 % of control.
For `CC(C)CC(=O)NC(C(=O)NC(C(=O)NC(CC(C)C)C(O)CC(=O)NC(C)C(=O)NC(CC(C)C)C(O)CC(=O)O)C(C)C)C(C)C` (configuration not stated), the T/C by setting is: under setting [2], 79 % of control; under setting [4], 109 % of control; under setting [6], 95 % of control; under setting [8], 120 % of control.
For `CCC1CCCCN1C(=S)N/N=C(\C)c1ccccn1` (configuration not stated), the T/C under setting [12] was 121 % of control.
On to `CCOC1=Cc2c(oc3c(C(C)(C)C)cc(OCC)cc23)OC(C(C)(C)C)=C1`, for which the T/C is, setting by setting: (endpoint: median tumor weight (est.), dose: 0.78 mg/kg/injection, schedule: Q07DX002 (ip), vehicle: saline with Tween-80, higher = larger tumour) 94 % of control; (endpoint: median tumor weight (est.), dose: 1.56 mg/kg/injection, schedule: Q07DX002 (ip), vehicle: saline with Tween-80, higher = larger tumour) 102 % of control; (endpoint: median tumor weight (est.), dose: 6.25 mg/kg/injection, schedule: Q07DX002 (ip), vehicle: saline with Tween-80, higher = larger tumour) 83 % of control (2×) and 88 % of control; under setting [15], 64 % of control and 65 % of control; under setting [12], 55 % of control and 64 % of control; under setting [13], 51 % of control and 65 % of control. The T/C under setting [14] was 72 % of control and 77 % of control.
On to `ClCCCCCCCCCCc1ccccc1`, for which the T/C under setting [1] is 83 % of control; the T/C (endpoint: median tumor weight (est.), dose: 12.5 mg/kg/injection, schedule: Q07DX003 (ip), vehicle: Klucel (hydroxypropylcellulose) (HPC), higher = larger tumour) is 77 % of control; the T/C under setting [2] was 83 % of control; the T/C under setting [3] is 95 % of control; the T/C under setting [5] is 63 % of control; the T/C under setting [6] is 67 % of control. Moreover, the T/C by setting is: under setting [7], 65 % of control; under setting [8], 80 % of control; under setting [9], 90 % of control; under setting [10], 88 % of control; under setting [11], 51 % of control.
`Nc1ccn(C2OC(CO)C(O)C2O)c(=O)n1` (configuration not stated): the T/C (endpoint: median tumor weight (est.), dose: 100.0 mg/kg/injection, schedule: Q07DX002 (ip), vehicle: saline, higher = larger tumour) is 69 % of control; the T/C under setting [16] is 74 % of control; the T/C (endpoint: median tumor weight (est.), dose: 400.0 mg/kg/injection, schedule: Q07DX002 (ip), vehicle: saline, higher = larger tumour) was 75 % of control and 95 % of control; the T/C (endpoint: median tumor weight (est.), dose: 600.0 mg/kg/injection, schedule: Q07DX002 (ip), vehicle: saline, higher = larger tumour) is 29 % of control and 43 % of control; the T/C (endpoint: median tumor weight (est.), dose: 800.0 mg/kg/injection, schedule: Q07DX002 (ip), vehicle: saline, higher = larger tumour) was 35 % of control; the T/C under setting [17] is 44 % of control and 55 % of control.
For `C[C@H](N)C(=O)N[C@@H]1[C@H]2C(=C(O)C[C@@H](O)[C@@H]2O)C(=O)O[C@@H]1C`, the T/C under setting [16] was 65 % of control; the T/C (endpoint: median tumor weight (est.), dose: 300.0 mg/kg/injection, schedule: Q07DX002 (ip), vehicle: saline, higher = larger tumour) was 96 % of control; the T/C under setting [17] is 90 % of control; the T/C (endpoint: median tumor weight (est.), dose: 2400.0 mg/kg/injection, schedule: Q07DX002 (ip), vehicle: saline, higher = larger tumour) was 96 % of control.
In the case of `NC(C(=O)O)c1ccc(CBr)cc1` (configuration not stated), the T/C was 151 % of control under setting [15], 106 % of control under setting [12] and 182 % of control under setting [13].
